Laboratory results from ChEMBL document CHEMBL4699612, “Discovery of thiosemicarbazone-containing compounds with potent anti-proliferation activity against drug-resistant K562/A02 cells” (Bioorg Med Chem Lett, 2020).
Calls of active or inactive are those of the source. The calls are words filed in the database; no cut-off is given here.

Experiments:
K562/A02 [1] = assay: Induction of apoptosis in human K562/A02 cells assessed as late apoptotic cells at 3 uM incubated for 48 hrs by annexin V and propidium iodide staining based flow cytometry (reference value: 0.83 %); type: functional
K562 [2] = assay: Antiproliferative activity against human K562 cells by MTT assay; type: functional, cell-based
K562/A02 [3] = assay: Induction of apoptosis in human K562/A02 cells assessed as early apoptotic cells at 3 uM incubated for 48 hrs by annexin V and propidium iodide staining based flow cytometry (reference value: 1.42 %); type: functional
K562/A02 [4] = assay: Induction of apoptosis in human K562/A02 cells assessed as decrease in Bcl2 expression incubated for 48 hrs by Western blot analysis; type: functional, cell-based; conditions: dose microM 1-3, time 48.0 hrs
K562/A02 [5] = assay: Induction of apoptosis in human K562/A02 cells assessed as viable cells at 3 uM incubated for 48 hrs by annexin V and propidium iodide staining based flow cytometry (reference value: 92.94 %); type: functional; conditions: read-out: Activity
K562/A02 [6] = assay: Induction of apoptosis in human K562/A02 cells assessed as necrotic cells at 1 uM incubated for 48 hrs by annexin V and propidium iodide staining based flow cytometry (reference value: 4.81 %); type: functional
K562/A02 [7] = assay: Antiproliferative activity against human K562/A02 cells overexpressing P-gp by MTT assay; type: functional, cell-based
K562/A02 [8] = assay: Effect on P-gp expression in human K562/A02 cells overexpressing P-gp; type: functional, cell-based
K562/A02 [9] = assay: Cytotoxicity against human K562/A02 cells at 3 uM incubated for 24 hrs in presence of ROS scavenger, NAC by MTT assay; type: functional, cell-based
K562/A02 [10] = assay: Up regulation of acetylated histone H4 expression level in human K562/A02 cells at 1 to 3 uM measured after 48 hrs by Western blot analysis; type: functional, cell-based; conditions: dose microM 1-3, time 48.0 hrs
K562/A02 [11] = assay: Induction of ROS generation in human K562/A02 cells at 3 uM in presence of ROS scavenger, NAC by DCFHA-DA based assay; type: functional, cell-based
K562/A02 [12] = assay: Induction of apoptosis in human K562/A02 cells assessed as early apoptotic cells at 1 uM incubated for 48 hrs by annexin V and propidium iodide staining based flow cytometry (reference value: 1.42 %); type: functional
K562/A02 [13] = assay: Induction of apoptosis in human K562/A02 cells assessed as necrotic cells at 3 uM incubated for 48 hrs by annexin V and propidium iodide staining based flow cytometry (reference value: 4.81 %); type: functional
K562/A02 [14] = assay: Induction of apoptosis in human K562/A02 cells assessed as increase in cleaved caspase 3 expression incubated for 48 hrs by Western blot analysis; type: functional, cell-based; conditions: dose microM 1-3, time 48.0 hrs
[15] = Resistance index, ratio of IC50 for human K562/A02 cells to IC50 for human K562 cells; type: functional; set-up: reference not given here
K562/A02 [16] = assay: Induction of apoptosis in human K562/A02 cells assessed as increase in Bax expression incubated for 48 hrs by Western blot analysis; type: functional, cell-based; conditions: dose microM 1-3, time 48.0 hrs
K562/A02 [17] = assay: Induction of apoptosis in human K562/A02 cells assessed as increase in cleaved PARP expression incubated for 48 hrs by Western blot analysis; type: functional, cell-based; conditions: dose microM 1-3, time 48.0 hrs
K562/A02 [18] = assay: Induction of apoptosis in human K562/A02 cells assessed as late apoptotic cells at 1 uM incubated for 48 hrs by annexin V and propidium iodide staining based flow cytometry (reference value: 0.83 %); type: functional
Histone deacetylase 1 = Histone deacetylase 1 (Homo sapiens, UniProt Q13547); assay: Inhibition of recombinant human HDAC1 using Boc-Lys(Ac)-AMC as substrate incubated for 60 mins by fluorimetric assay
Sequence of Histone deacetylase 1 (Q13547 whole entry): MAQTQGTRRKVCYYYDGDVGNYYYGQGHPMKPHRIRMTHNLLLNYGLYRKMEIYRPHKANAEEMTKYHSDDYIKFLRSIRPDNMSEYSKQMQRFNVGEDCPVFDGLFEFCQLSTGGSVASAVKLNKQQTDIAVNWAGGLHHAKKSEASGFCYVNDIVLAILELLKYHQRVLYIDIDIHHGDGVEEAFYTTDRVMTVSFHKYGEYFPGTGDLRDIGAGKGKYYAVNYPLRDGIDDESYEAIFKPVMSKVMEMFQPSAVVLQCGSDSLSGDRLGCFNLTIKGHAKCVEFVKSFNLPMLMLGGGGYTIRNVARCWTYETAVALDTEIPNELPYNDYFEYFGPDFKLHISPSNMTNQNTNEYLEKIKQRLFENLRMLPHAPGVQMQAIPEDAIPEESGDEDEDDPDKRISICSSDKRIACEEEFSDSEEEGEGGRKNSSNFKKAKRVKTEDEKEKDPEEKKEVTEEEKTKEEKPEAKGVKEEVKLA

Histone deacetylase 8 = target: T1, Histone deacetylase 8 (Homo sapiens, UniProt Q9BY41); assay: Inhibition of recombinant human HDAC8 using Boc-Lys(Ac)-AMC as substrate incubated for 60 mins by fluorimetric assay
T1 sequence (Q9BY41 whole entry): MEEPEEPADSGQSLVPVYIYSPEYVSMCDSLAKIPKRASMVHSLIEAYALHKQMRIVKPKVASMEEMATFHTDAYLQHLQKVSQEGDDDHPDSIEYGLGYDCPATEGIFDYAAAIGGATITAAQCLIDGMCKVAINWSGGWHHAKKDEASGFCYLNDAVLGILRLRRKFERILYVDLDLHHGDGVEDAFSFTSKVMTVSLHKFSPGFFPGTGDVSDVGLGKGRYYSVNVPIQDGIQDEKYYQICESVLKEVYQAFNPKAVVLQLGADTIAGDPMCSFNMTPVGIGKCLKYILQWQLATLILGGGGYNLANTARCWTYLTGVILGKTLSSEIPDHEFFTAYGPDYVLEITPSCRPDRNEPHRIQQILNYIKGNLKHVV

K562/A02 [19] = assay: Up regulation of acetylated histone H3 expression level in human K562/A02 cells at 1 to 3 uM measured after 48 hrs by Western blot analysis; type: functional, cell-based; conditions: dose microM 1-3, time 48.0 hrs
K562/A02 [20] = assay: Induction of ROS generation in human K562/A02 cells by DCFHA-DA based assay; type: functional, cell-based; conditions: dose microM 1-3
K562/A02 [21] = assay: Effect on P-gp activity in human K562/A02 cells; type: cell-based; conditions: filed as modulator
K562/A02 [22] = assay: Induction of apoptosis in human K562/A02 cells assessed as viable cells at 1 uM incubated for 48 hrs by annexin V and propidium iodide staining based flow cytometry (reference value: 92.94 %); type: functional; conditions: read-out: Activity
[23] = target: T2, Protein deacetylase HDAC6 (Homo sapiens, UniProt Q9UBN7); assay: Inhibition of recombinant human HDAC6 using Boc-Lys(Ac)-AMC as substrate incubated for 60 mins by fluorimetric assay
T2 sequence (Q9UBN7 whole entry): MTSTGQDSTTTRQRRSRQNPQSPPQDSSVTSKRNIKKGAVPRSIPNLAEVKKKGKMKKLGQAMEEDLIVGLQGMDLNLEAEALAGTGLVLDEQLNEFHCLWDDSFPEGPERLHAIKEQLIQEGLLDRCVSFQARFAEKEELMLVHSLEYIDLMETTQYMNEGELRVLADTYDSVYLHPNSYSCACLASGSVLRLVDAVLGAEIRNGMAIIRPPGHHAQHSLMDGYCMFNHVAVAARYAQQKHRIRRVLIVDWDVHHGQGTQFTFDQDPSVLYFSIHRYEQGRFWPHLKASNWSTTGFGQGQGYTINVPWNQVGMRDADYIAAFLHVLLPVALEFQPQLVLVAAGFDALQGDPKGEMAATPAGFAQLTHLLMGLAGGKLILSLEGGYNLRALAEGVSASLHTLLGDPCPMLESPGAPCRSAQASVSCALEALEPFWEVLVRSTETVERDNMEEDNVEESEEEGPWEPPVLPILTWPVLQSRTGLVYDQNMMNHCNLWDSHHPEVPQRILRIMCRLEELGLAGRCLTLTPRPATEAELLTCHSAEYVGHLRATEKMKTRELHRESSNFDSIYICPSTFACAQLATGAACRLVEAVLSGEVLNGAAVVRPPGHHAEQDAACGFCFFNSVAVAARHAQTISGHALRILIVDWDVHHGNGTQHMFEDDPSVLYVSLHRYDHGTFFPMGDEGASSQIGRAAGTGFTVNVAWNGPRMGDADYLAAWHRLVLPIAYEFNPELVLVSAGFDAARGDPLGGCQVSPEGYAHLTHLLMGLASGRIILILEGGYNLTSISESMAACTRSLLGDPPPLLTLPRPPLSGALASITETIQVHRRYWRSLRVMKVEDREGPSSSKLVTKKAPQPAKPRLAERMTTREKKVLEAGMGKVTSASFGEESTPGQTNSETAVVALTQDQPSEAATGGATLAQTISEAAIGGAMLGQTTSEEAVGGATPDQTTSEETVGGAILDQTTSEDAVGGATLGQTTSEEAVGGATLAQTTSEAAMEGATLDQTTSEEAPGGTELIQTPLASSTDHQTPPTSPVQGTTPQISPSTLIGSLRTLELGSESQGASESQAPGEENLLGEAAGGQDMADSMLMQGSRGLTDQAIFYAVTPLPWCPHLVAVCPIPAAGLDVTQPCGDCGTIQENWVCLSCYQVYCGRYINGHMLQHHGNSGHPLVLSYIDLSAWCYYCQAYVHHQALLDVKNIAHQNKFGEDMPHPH

K562 [24] = assay: Induction of ROS generation in human K562 cells at 1 to 3 uM by DCFHA-DA based assay; type: functional, cell-based; conditions: dose microM 1-3

## C/C(=N\NC(=S)NCCCCCC(=O)NO)c1ccc(Br)cc1
K562/A02 [1]
  Activity: 53.69%
K562 [2]
  IC50: 960 nM
K562/A02 [3]
  Activity: 22.28%
K562/A02 [4]
  Activity: Dose-dependent effect
K562/A02 [5]
  viability at 3 µM: 18.9%
K562/A02 [6]
  Activity: 4.4%
K562/A02 [7]
  IC50: 440 nM
K562/A02 [8]
  Activity: Active
K562/A02 [9]
  Activity: inactive
K562/A02 [10]
  Activity: Active
K562/A02 [11]
  Activity: inactive
K562/A02 [12]
  Activity: 16.35%
K562/A02 [13]
  Activity: 5.18%
K562/A02 [14]
  Activity: Dose-dependent effect
[15]
  Ratio IC50: 0.46
K562/A02 [16]
  Activity: Dose-dependent effect
K562/A02 [17]
  Activity: Dose-dependent effect
K562/A02 [18]
  Activity: 52%
Histone deacetylase 1
  IC50: 38.6 nM
Histone deacetylase 8
  IC50: > 5000 nM
K562/A02 [19]
  Activity: Active
K562/A02 [20]
  Activity: Dose-dependent effect
K562/A02 [21]
  Activity: Active
K562/A02 [22]
  viability at 1 µM: 27.2%
[23]
  IC50: 34.6 nM
K562 [24]
  Activity: inactive
